Key:
Type in all cases: binding
Obp56d [1] = target: T1, Obp56d (Bactrocera dorsalis, UniProt A0A6I9V3V6); assay: fluorescence titration, microplate reader (ex […] nm); settings: 2 uM Obp, 2-16 uM 1-NPN, 50 mM Tris-HCl, pH 7.4; fluorescent probe; one-site fit
T1 construct: gene LOC105221864; recombinant, E. coli Rosetta (DE3), pET-32a(+) vector, designed from CDS; about 29 kDa on SDS-PAGE; anion-exchange purified
T1 sequence (A0A6I9V3V6 19-138): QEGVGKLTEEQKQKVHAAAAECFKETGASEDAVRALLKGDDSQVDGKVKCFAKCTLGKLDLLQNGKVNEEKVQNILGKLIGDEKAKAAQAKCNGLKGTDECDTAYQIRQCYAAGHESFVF

Obp56d-2 [2] = target: T2, Obp56d-2 (Bactrocera dorsalis, UniProt A0ACM8RD04); assay: as above; settings: 2 uM Obp, 2-16 uM 1-NPN, 50 mM Tris-HCl, pH 7.4; fluorescent probe; one-site fit
T2 construct: gene LOC105221865; recombinant, E. coli Rosetta (DE3), pET-32a(+) vector, designed from CDS; about 29 kDa on SDS-PAGE; anion-exchange purified
T2 sequence (A0ACM8RD04 19-138): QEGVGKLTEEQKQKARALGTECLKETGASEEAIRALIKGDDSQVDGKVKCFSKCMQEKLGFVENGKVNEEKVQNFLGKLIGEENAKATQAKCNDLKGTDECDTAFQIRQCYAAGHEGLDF

Obp56d-2 [3] = target: T2, Obp56d-2; assay: competitive displacement of 1-NPN fluorescence; settings: 3-HA 0-16 uM; 2 uM Obp, 50 mM Tris-HCl, pH 7.4; competitive with 1-NPN
Obp56d [4] = target: T1, Obp56d; assay: competitive displacement of 1-NPN fluorescence; settings: 3-HA 0-16 uM; 2 uM Obp, 50 mM Tris-HCl, pH 7.4; competitive with 1-NPN

Row | % reduction of relative fluorescence intensity of the Obp/1-NPN complex (Obp56d-2 [3]) [%] | % reduction of relative fluorescence intensity of the Obp/1-NPN complex (Obp56d [4]) [%] | Structure (SMILES) | dissociation constant (Obp56d [1]) | dissociation constant (Obp56d-2 [2])
1 | – | – | c1ccc(Nc2cccc3ccccc23)cc1 [1-NPN] | Then the dissociation constants of the Obp56d and Obp56d-2 were generated | Then the dissociation constants of the Obp56d and Obp56d-2 were generated
2 | > 50 | > 50 | CCC=CCCOC(C)=O [3-HA] | – | –
